The values that follow come from EP0652009A1, “Identification and use of protease inhibitors” (ELI LILLY AND COMPANY, priority 1993, dated 1995).

The assay has as its target Cathepsin D (Homo sapiens, UniProt P07339). The assay is described as follows: Assay 3: cathepsin D inhibition activity (non-cellular assay, chromogenic substrate). The class given is biochemical. Also on record: Frozen human placental tissue was thawed and homogenized in 10mM Tris-HCl, pH 7.4; from tissue; host or cells: human placenta. To be noted: cathepsin D from human placental tissue, pH 3.7, 37°C. On the procedure:
A third non-cellular assay for determining in vitro aspartyl protease inhibitory activity is generally described in Jupp, R.A. et al., (1990) Biochem. J., 265:871-878 and Rao et al., J. Med. Chem. (1993), in press. The assay is carried out by incubating a test compound with a suitable aspartyl protease, such as cathepsin D, in the presence of a chromogenic substrate. The inhibition constant, Ki, value may then be determined by quantifying the competitive inhibition of the hydrolysis of the chromogenic substrate. A variety of chromogenic substrates that are useful for assaying aspartyl protease activity are discussed in Dunn, et al., (1986) Biochem. J., 237:899-906. A preferred chromogenic substrate for a cathepsin D assay is disclosed in Scarborough, P.E. et al., Protein Science, (1993), 2:264-276.
Concentrations of substrate solutions and cleavage products may be verified using amino acid analysis. The enzyme preparations may be titrated with a tightly binding inhibitor to quantitate the active concentration of the enzyme. Enzyme concentrations are typically in the range of from 1-6 nM. […]
A decrease in absorbance in the range of 284-324 nm may be monitored using a spectrophotometer. Absorbance readings are typically taken at various timepoints. […] Estimates of Ki may then be determined using the Dixon construction. […]

Molecules are shown by their SMILES. Non-standard residues stand in square brackets, D forms with d. Residues, ends and D or L forms follow the SMILES beside them. 2Nal = N[C@@H](Cc1ccc2ccccc2c1)C(=O)O; Sta = CC(C)C[C@H](N)[C@@H](O)CC(=O)O

Sequence of Cathepsin D (P07339 65-412): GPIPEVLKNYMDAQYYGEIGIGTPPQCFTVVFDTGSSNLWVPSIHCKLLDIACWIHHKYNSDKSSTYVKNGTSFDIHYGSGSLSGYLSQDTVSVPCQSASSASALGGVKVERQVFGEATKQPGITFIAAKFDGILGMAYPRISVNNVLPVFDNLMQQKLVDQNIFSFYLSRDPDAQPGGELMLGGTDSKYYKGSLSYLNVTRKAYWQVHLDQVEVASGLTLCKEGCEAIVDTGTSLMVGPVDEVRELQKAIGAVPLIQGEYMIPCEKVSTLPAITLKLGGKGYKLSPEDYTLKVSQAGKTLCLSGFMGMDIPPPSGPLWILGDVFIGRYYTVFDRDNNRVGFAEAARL

By Ki is commonly meant the equilibrium dissociation constant of an inhibitor or competing ligand from its target. As for `CC(=O)N[C@@H](Cc1ccc2ccccc2c1)C(=O)N[C@H](C(=O)N[C@@H](CC(C)C)[C@@H](O)CC(=O)N[C@@H](CC(C)C)C(=O)N[C@@H](Cc1ccc2ccccc2c1)C(N)=O)C(C)C` [Example 36, Acetyl-β-naphthylalanine-valine-statine-leucine-β-naphthylalanine-amide] (Ac-[2Nal]V[Sta]L[2Nal]-NH2), the affinity, expressed as Ki, was 0.39 ± 0.04 nM.
